What was measured:
[1] = Oral bioavailability in cynomolgus monkey at 0.3 mg/kg; format: ADME, organism-based, Macaca fascicularis; details: in vivo
[2] = Oral bioavailability in Wistar rat at 0.3 mg/kg; format: ADME, organism-based; details: in vivo
[3] = Ratio of drug level in brain to plasma in CD rat at 10 to 70 mg/kg, po administered through gavage measured at 6 hrs; format: ADME, organism-based; details: read-out: BPR

Row | SMILES | bioavailability [1] [%] | bioavailability [2] [%] | Kp at 6 h [3]
1 | O=C1NCN(c2ccccc2)C12CCN([C@@H]1CC[C@H]3CCCc4cccc1c43)CC2 | 1 | 4 | 
2 | NC(=O)C1(c2ccccc2)CC2CCC(C1)N2C(c1ccccc1Cl)c1ccccc1Cl (stereo not drawn) |  |  | 0.43 to 0.59

Source: ChEMBL document CHEMBL4428025 (J Med Chem, 2016)
